Assay results published in PubChem BioAssay (NCI).
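Where inhibition never reached the appropriate level, the endpoint shown equals the highest concentration tested. Otherwise, values were interpolated linearly from a five-concentration, 48-hour dose response in 96-well plates. Definition used: TGI = concentration required for complete inhibition of growth.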

Legend:
Experiment in all cases: growth of human tumour cells (NCI), 48 h
786-0 renal = test system: 786-0 renal
A498 renal = test system: A498 renal
A549 NSCLC = test system: A549 NSCLC
ACHN renal = test system: ACHN renal
CAKI-1 renal = test system: CAKI-1 renal
CCRF-CEM leukemia = test system: CCRF-CEM leukemia
COLO 205 colon = test system: COLO 205 colon
DLD-1 colon = test system: DLD-1 colon
DMS 114 small cell lung = test system: DMS 114 small cell lung
EKVX NSCLC = test system: EKVX NSCLC
HCC-2998 colon = test system: HCC-2998 colon
HCT-116 colon = test system: HCT-116 colon
HCT-15 colon = test system: HCT-15 colon
HL-60(TB) leukemia = test system: HL-60(TB) leukemia
HOP-62 NSCLC = test system: HOP-62 NSCLC
HOP-92 NSCLC = test system: HOP-92 NSCLC
HT29 colon = test system: HT29 colon
IGROV1 ovarian = test system: IGROV1 ovarian
K-562 leukemia = test system: K-562 leukemia
KM20L2 colon = test system: KM20L2 colon
LOX IMVI melanoma = test system: LOX IMVI melanoma
LXFL 529 NSCLC = test system: LXFL 529 NSCLC
M14 melanoma = test system: M14 melanoma
M19-MEL melanoma = test system: M19-MEL melanoma
MALME-3M melanoma = test system: MALME-3M melanoma
NCI-H226 lung = test system: NCI-H226 lung
NCI-H23 lung = test system: NCI-H23 lung
NCI-H522 lung = test system: NCI-H522 lung
OVCAR-3 ovarian = test system: OVCAR-3 ovarian
OVCAR-4 ovarian = test system: OVCAR-4 ovarian
OVCAR-5 ovarian = test system: OVCAR-5 ovarian
OVCAR-8 ovarian = test system: OVCAR-8 ovarian
RPMI-8226 leukemia = test system: RPMI-8226 leukemia
RXF 393 renal = test system: RXF 393 renal
RXF-631 renal = test system: RXF-631 renal
SF-268 CNS = test system: SF-268 CNS
SF-295 CNS = test system: SF-295 CNS
SF-539 CNS = test system: SF-539 CNS
SK-MEL-2 melanoma = test system: SK-MEL-2 melanoma
SK-MEL-28 melanoma = test system: SK-MEL-28 melanoma
SK-OV-3 ovarian = test system: SK-OV-3 ovarian
SN12C renal = test system: SN12C renal
SNB-19 CNS = test system: SNB-19 CNS
SNB-75 CNS = test system: SNB-75 CNS
SR leukemia = test system: SR leukemia
SW-620 colon = test system: SW-620 colon
TK-10 renal = test system: TK-10 renal
UACC-257 melanoma = test system: UACC-257 melanoma
UACC-62 melanoma = test system: UACC-62 melanoma
XF 498 CNS = test system: XF 498 CNS
DMS 273 small cell lung = test system: DMS 273 small cell lung
HOP-18 NSCLC = test system: HOP-18 NSCLC
KM12 colon = test system: KM12 colon
MOLT-4 leukemia = test system: MOLT-4 leukemia
NCI-H460 lung = test system: NCI-H460 lung
SK-MEL-5 melanoma = test system: SK-MEL-5 melanoma
SNB-78 CNS = test system: SNB-78 CNS
U251 CNS = test system: U251 CNS
UO-31 renal = test system: UO-31 renal

Measured: TGI

C/C(=N\N=C(N)N)C(CN1CCCCC1)C(c1ccccc1)c1c(O)c2ccccc2oc1=O (stereo not given)
not listed: DMS 273 small cell lung | HOP-18 NSCLC | KM12 colon | MOLT-4 leukemia | NCI-H460 lung | SK-MEL-5 melanoma | SNB-78 CNS | U251 CNS | UO-31 renal
> 100 µM: all other assays above

COc1cc(C2C(Cl)C(=O)N2NC(=O)Cc2ccccc2)cc(Br)c1O (stereo not given)
not listed: A498 renal | HOP-92 NSCLC | RXF-631 renal | SF-539 CNS
> 100 µM: all other assays above

O=C(CCC(=O)Nc1ccc(Cl)c(Cl)c1)Cc1nc2ccccc2o1
not listed: DLD-1 colon | XF 498 CNS
> 100 µM: all other assays above

NC(=O)NNC(=O)CCn1[nH]c(=O)c(Cl)c(Cl)c1=O
not listed: RPMI-8226 leukemia | SF-539 CNS | SR leukemia | XF 498 CNS | KM12 colon | MOLT-4 leukemia
> 100 µM: all other assays above
